Test results: publication PMC11897524 (Frontiers in Pharmacology, 2025)

Assays:
[1] = Hematology parameters of treated mice; format: in vivo, BALB/c nude mice; conditions: BST-4-treated vs vehicle groups
Experimental: (§1) To further investigate the in vivo effects of BST-4, 6–8 weeks male BALB/c nude mice were obtained by Changzhou Cavens Experimental Animal Co., Ltd. (Changzhou, China). The mice were acclimatized to the laboratory environment for a week before the experiment. The housing conditions were maintained at a temperature of 22°C ± 2°C, a relative humidity of 50%–60%, and a 12-h light/dark cycle. 0.1 mL of CAKI-2cell suspension (1 × 10⁶ cells) was subcutaneously injected into the right flank of each mouse. […] The vehicle group was injected with a vehicle solution consisting of 5% DMSO and PBS. The tumor volume of mice was measured every 2 days and calculated according to the formula: (c × c × d)/2, where c and d represent the minimum diameter and maximum diameter, respectively. All animal experiments were performed and approved by the Ethics Committee of China Pharmaceutical University.
FIGURE 12 Hematology parameters of mice in the BST-4-treated groups and vehicle groups. (A) White blood cell (WBC); (B) Red blood cells (RBC); (C) Platelets (PLT); (D) Hemoglobin (HGB). Data are presented as the mean ± SD, n = 5.

STAT3 = STAT3 (Homo sapiens, UniProt P40763); test: STAT3 binding inhibition assay; design: purchased Abcam
CAKI-2 xenograft tumors = test: CAKI-2 cell-derived xenograft model; format: in vivo, BALB/c nude mice; conditions: 10 mg/kg intraperitoneally every 12 h, nude mice
Experimental: as §1

[2] = test system: shBRD4/STAT3-CAKI-2 cells; test: MTT assay on shRNA-transfected CAKI-2 cells; format: cell-based; conditions: Homo sapiens, CAKI-2 stably expressing BRD4/STAT3 shRNA, 48 h, read-out: IC50 (μM) ± SD shBRD4/STAT3-CAKI-2
Experimental: (§2) The effect of hit compounds on cytotoxicity was determined as previously reported ([Ding et al., 2020]). In brief, cells treated with the tested compounds were added with MTT reagent to form formazan crystals, and then the optical density (OD) values at 570 nm were determined after the crystals were dissolved in DMSO. […] Next, the values of IC50 of the selected compounds against more RCC cell lines were determined. The 5 × 10^3 cells in 100 μL culture medium were injected into each well of a 96-well plate and cultured overnight. Add different concentrations of compounds and incubate for 48 h. Then 100 μL of MTT (0.5 mg/mL) solution was added to the 96-well plate and maintained at 37°C for 4 h. Finally, 200 μL of DMSO was added and shaken for 10 min. The OD values at 570 nm were determined by a Synergy 4 microplate reader.
(§3) ^aIC50 (μM) is the concentration of compound needed to reduce cell growth by 50% following 48 h cell treatment with BST-4. shControl-CAKI-2: CAKI-2 cells stably expressing Control shRNA; shBRD4-CAKI-2 cells: CAKI-2 cells stably expressing BRD4 shRNA; shSTAT3-CAKI-2 cells: CAKI-2 cells stably expressing STAT3 shRNA; shBRD4/STAT3-CAKI-2 cells: CAKI-2 cells stably expressing BRD4/STAT3 shRNA. Each experiment was performed at least three times. Data are presented as the mean ± SD.

shSTAT3-CAKI-2 cells = test: MTT assay on shRNA-transfected CAKI-2 cells; format: cell-based; conditions: Homo sapiens, CAKI-2 stably expressing STAT3 shRNA, 48 h, read-out: IC50 (μM) ± SD shSTAT3-CAKI-2
Experimental: as §2, §3

shControl-CAKI-2 cells = test: MTT assay on shRNA-transfected CAKI-2 cells; format: cell-based; conditions: Homo sapiens, CAKI-2 stably expressing Control shRNA, 48 h, read-out: IC50 (μM) ± SD shControl-CAKI-2
Experimental: as §2, §3

LCK = LCK (Homo sapiens, UniProt P06239); test: SelectScreen Z′-LYTE kinase assay; format: biochemical
Experimental: (§4) The kinase selectivity profile of BST-4 was performed by the SelectScreen kinase profiling service (Thermo Fisher Scientific). Kinase selectivity assay was performed using Z′-LYTE ™ screening protocol kit. Briefly, the test compounds were screened in 1% DMSO (final). For 10-point titrations, perform a 3-fold dilution starting at a starting concentration of 50 µM. Then 2.5 µL 4× test compound, 2.4 µL kinase buffer, 5 µL 2× kinase mixture and 2.5 µL 4× ATP solution was added in black 384-well plate. After shaking for 30 s, the plates were incubated for 60 min at room temperature. Add developing reagent solution and shake the plate for 30 s, then incubate for 1 h at room temperature. The Fluorescence intensity per well was read using a fluorescence plate reader. SelectScreen® Kinase Profiling Service used XLfit from IDBS. The dose response curve was curve fit to model number 205 (sigmoidal dose-response model) and inhibition rates were calculated. 50% inhibition was used as a activity threshold. IC50 values were calculated based on curve fitting.

INSR = INSR (Homo sapiens, UniProt P06213); test: SelectScreen Z′-LYTE kinase assay; format: biochemical
Experimental: as §4

IGF1R = IGF1R (Homo sapiens, UniProt P08069); test: SelectScreen Z′-LYTE kinase assay; format: biochemical
Experimental: as §4

EPHA8 = EPHA8 (Homo sapiens, UniProt P29322); test: SelectScreen Z′-LYTE kinase assay; format: biochemical
Experimental: as §4

PTK6 = PTK6 (Homo sapiens, UniProt Q13882); test: SelectScreen Z′-LYTE kinase assay; format: biochemical
Experimental: as §4

YES1 = YES1 (Homo sapiens, UniProt P07947); test: SelectScreen Z′-LYTE kinase assay; format: biochemical
Experimental: as §4

FGFR3 = FGFR3 (Homo sapiens, UniProt P22607); test: SelectScreen Z′-LYTE kinase assay; format: biochemical
Experimental: as §4

MET = MET (Homo sapiens, UniProt P08581); test: SelectScreen Z′-LYTE kinase assay; format: biochemical
Experimental: as §4

DDR2 = DDR2 (Homo sapiens, UniProt Q16832); test: SelectScreen Z′-LYTE kinase assay; format: biochemical
Experimental: as §4

SRC = SRC (Homo sapiens, UniProt P12931); test: SelectScreen Z′-LYTE kinase assay; format: biochemical
Experimental: as §4

CSK = CSK (Homo sapiens, UniProt P41240); test: SelectScreen Z′-LYTE kinase assay; format: biochemical
Experimental: as §4

ALK = ALK (Homo sapiens, UniProt Q9UM73); test: SelectScreen Z′-LYTE kinase assay; format: biochemical
Experimental: as §4

Chain of SRC (P12931 whole entry): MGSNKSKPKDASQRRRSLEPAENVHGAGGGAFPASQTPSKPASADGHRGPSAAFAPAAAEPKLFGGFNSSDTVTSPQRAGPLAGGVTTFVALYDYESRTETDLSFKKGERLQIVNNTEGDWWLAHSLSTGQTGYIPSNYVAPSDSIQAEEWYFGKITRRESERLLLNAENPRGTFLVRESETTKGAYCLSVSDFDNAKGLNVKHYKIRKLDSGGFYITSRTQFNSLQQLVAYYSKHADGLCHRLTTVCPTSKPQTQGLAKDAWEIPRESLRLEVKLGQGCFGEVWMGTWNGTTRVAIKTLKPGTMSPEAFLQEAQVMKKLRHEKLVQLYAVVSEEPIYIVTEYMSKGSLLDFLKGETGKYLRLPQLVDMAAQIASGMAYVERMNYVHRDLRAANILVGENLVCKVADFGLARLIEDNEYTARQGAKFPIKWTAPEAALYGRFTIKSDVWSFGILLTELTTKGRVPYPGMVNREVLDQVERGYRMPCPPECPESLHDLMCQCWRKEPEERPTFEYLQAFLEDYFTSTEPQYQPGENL
Chain of IGF1R (P08069 31-1367): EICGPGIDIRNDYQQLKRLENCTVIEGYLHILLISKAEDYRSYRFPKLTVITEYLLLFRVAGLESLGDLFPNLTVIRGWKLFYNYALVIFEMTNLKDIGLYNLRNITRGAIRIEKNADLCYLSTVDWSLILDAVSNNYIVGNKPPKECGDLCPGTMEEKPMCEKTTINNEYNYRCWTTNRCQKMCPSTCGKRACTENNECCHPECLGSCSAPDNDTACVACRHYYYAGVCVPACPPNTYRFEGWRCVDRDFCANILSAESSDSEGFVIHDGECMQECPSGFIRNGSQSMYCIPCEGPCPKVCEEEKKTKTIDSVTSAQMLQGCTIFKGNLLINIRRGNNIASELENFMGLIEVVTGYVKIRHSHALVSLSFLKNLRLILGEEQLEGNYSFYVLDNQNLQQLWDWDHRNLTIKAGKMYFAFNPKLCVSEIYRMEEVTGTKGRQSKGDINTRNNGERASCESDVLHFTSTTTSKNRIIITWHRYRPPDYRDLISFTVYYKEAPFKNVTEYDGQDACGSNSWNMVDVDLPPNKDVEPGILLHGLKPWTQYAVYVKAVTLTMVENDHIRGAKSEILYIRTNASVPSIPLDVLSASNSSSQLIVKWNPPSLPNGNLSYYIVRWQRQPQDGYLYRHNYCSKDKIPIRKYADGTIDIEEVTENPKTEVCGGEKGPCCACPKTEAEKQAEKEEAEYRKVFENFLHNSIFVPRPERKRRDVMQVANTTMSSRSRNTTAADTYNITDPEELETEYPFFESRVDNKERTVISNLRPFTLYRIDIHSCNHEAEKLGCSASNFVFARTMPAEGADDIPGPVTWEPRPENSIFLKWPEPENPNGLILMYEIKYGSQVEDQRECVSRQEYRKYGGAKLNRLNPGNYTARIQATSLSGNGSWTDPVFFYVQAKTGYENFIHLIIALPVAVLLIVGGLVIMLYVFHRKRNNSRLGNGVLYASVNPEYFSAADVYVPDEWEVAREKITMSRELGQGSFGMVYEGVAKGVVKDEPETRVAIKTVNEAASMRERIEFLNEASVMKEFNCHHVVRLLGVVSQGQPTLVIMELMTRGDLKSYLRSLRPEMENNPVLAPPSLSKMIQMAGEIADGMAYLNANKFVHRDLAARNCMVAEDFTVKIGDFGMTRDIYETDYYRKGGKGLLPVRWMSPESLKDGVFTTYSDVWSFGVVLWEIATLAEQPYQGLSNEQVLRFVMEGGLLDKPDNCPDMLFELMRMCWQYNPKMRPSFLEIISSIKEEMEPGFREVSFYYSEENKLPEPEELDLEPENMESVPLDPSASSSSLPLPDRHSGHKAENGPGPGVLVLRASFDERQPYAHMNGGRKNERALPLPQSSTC
Chain of MET (P08581 25-1390): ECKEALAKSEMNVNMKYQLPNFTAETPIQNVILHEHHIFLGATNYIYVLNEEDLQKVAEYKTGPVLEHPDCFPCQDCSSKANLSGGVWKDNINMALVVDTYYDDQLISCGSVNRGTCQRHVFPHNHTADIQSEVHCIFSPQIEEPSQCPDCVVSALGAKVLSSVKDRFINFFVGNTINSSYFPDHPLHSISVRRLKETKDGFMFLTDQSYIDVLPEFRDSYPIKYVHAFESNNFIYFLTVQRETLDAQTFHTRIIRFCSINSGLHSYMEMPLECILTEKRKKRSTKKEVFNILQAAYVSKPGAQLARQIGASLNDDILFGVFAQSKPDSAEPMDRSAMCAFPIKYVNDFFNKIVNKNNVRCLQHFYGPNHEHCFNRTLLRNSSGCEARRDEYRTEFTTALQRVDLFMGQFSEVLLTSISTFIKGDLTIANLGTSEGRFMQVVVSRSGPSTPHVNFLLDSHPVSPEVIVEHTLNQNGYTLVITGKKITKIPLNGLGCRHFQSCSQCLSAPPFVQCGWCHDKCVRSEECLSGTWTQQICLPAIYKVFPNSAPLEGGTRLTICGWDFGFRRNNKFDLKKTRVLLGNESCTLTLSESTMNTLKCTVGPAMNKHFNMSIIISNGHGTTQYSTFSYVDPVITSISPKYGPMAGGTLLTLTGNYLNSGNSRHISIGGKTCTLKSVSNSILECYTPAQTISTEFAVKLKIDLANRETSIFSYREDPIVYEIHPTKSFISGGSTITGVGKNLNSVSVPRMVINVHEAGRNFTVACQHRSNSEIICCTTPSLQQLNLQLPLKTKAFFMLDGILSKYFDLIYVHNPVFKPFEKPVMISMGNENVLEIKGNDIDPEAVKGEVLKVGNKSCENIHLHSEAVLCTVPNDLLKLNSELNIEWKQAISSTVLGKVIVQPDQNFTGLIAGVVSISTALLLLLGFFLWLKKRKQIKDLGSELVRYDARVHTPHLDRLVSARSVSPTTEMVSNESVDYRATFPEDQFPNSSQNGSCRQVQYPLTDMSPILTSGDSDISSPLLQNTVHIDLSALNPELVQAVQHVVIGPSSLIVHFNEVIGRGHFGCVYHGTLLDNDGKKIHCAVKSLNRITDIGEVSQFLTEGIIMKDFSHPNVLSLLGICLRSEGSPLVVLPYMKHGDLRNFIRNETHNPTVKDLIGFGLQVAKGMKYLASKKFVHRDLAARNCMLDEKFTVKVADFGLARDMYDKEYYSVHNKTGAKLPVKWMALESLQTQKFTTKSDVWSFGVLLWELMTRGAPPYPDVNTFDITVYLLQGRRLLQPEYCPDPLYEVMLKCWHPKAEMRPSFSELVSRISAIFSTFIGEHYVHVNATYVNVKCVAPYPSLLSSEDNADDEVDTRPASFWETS
Chain of ALK (Q9UM73 19-1620): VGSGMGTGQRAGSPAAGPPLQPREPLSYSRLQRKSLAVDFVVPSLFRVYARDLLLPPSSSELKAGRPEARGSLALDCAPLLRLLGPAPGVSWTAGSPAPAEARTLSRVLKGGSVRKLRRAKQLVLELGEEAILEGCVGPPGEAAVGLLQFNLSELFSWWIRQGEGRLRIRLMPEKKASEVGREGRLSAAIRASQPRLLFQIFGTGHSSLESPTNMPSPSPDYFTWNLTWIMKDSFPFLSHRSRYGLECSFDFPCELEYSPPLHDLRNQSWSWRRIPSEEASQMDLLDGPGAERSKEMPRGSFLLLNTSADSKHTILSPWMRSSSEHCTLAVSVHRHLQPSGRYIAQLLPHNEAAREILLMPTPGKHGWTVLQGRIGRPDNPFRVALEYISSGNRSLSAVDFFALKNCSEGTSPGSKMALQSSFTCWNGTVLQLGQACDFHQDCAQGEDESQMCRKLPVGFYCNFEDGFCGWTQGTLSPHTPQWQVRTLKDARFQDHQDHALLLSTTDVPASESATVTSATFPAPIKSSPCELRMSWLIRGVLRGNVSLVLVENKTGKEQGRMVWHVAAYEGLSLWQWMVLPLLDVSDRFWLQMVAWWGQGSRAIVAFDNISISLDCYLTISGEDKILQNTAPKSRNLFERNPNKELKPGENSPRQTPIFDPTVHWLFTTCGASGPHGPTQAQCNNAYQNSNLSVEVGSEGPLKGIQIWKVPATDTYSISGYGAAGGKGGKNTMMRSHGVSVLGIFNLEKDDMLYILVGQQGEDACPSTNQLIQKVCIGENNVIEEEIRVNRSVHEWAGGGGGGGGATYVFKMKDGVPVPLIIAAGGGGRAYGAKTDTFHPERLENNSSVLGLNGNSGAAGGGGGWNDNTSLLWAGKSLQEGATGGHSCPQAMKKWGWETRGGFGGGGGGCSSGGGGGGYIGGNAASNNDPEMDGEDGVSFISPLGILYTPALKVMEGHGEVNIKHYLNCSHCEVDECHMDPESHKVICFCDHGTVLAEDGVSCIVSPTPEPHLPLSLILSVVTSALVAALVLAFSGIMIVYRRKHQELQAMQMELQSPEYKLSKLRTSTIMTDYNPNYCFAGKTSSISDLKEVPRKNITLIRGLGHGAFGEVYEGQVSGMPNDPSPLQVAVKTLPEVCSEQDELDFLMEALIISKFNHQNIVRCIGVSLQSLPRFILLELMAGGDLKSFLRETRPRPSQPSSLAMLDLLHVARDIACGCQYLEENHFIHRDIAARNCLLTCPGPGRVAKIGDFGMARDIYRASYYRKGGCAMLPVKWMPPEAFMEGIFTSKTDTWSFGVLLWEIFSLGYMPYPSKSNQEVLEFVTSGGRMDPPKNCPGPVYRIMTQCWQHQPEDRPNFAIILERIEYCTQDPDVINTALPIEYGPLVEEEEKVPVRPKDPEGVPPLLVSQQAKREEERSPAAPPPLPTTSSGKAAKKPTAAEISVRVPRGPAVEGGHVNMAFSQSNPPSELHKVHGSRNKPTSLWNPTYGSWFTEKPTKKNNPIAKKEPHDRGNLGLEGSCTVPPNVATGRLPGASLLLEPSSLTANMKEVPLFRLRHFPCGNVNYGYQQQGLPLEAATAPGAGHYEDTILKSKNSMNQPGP

CCS(=O)(=O)Cc1cnc(Oc2c(F)cc(F)cc2OCCCCOc2ccc(/C=C/c3cc(OC)cc(OC)c3)cc2)c(-c2cc(C)c3c(=O)[nH]ccn23)c1 [BST-4]
levels of representative hematological markers (WBC, RBC, PLT, HGB) vs vehicle [1]: no significant differences
IC50 (STAT3): 0.00807 ± 0.00051 µM
STAT3 inhibition relative to CJ-1383 (STAT3; IC50 ratio vs CJ-1383): about 115 fold
tumor growth (tumor volume) in CAKI-2 xenograft (CAKI-2 xenograft tumors): significantly inhibited tumor growth
IC50 [2]: > 10 µM
IC50 (shSTAT3-CAKI-2 cells): 3.48 ± 0.21 µM
IC50 (shControl-CAKI-2 cells): 0.76 ± 0.05 µM
IC50 (LCK): > 10 µM
inhibition at 1 µM (LCK): 0.77%
IC50 (INSR): > 10 µM
inhibition at 1 µM (INSR): 2.53%
IC50 (IGF1R): > 10 µM
inhibition at 1 µM (IGF1R): 0.91%
IC50 (EPHA8): > 10 µM
inhibition at 1 µM (EPHA8): 0.72%
IC50 (PTK6): > 10 µM
inhibition at 1 µM (PTK6): 2.34%
IC50 (YES1): > 10 µM
inhibition at 1 µM (YES1): 1.22%
IC50 (FGFR3): > 10 µM
inhibition at 1 µM (FGFR3): 2.84%
IC50 (MET): > 10 µM
inhibition at 1 µM (MET): 0.68%
IC50 (DDR2): > 10 µM
inhibition at 1 µM (DDR2): 0.7%
IC50 (SRC): > 10 µM
inhibition at 1 µM (SRC): 3.24%
IC50 (CSK): > 10 µM
inhibition at 1 µM (CSK): 0.74%
IC50 (ALK): > 10 µM
inhibition at 1 µM (ALK): 0.72%
